Calls of active or inactive are those of the source.
Key:
[1] = target: Protein disulfide-isomerase (Homo sapiens, UniProt P07237); assay: PDI inhibitors, insulin aggregation turbidity, dose response, biochemical, absorbance, cherry-picked samples (AID 602350); type: functional
[2] = target: T1, High affinity choline transporter 1 (Homo sapiens, UniProt Q9GZV3); assay: CHT activators, dose response, cell-based, 10-point CRC, membrane potential dye (AID 602376); type: functional
T1 sequence (Q9GZV3 whole entry): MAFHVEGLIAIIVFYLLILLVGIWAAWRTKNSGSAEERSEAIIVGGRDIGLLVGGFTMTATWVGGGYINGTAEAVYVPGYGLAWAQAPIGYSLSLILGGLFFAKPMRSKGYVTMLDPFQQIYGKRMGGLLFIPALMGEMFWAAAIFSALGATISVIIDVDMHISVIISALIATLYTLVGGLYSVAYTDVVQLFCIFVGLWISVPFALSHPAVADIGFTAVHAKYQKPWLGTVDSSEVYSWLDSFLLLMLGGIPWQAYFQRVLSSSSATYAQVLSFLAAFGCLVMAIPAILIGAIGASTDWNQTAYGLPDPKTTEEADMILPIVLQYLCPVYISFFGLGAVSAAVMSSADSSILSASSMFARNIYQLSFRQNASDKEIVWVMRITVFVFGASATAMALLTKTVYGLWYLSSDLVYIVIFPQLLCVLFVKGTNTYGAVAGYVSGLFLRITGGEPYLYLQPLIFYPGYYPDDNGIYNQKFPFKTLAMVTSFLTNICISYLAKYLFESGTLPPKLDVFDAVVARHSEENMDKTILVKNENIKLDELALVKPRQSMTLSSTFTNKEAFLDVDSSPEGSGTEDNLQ

INS1 = assay: beta cell apoptosis inhibitors, cytokine rescue, dose response, luminescence, retest (AID 449756); type: functional, cell-based; settings: Rattus norvegicus;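 note: cell death triggered by IL-1 beta plus TNF-alpha plus IFN-gamma mixture; protective hits raise ATP signal compared with cytokine alone wells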
[3] = cytotoxicity toward NIH3T3 fibroblasts, dose response, counter-screen, cell-based, ATP luminescence, mouse fibroblasts (AID 2010); type: functional;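 note: cells exposed to compound for about 90 hours before reading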
[4] = inhibitors of intracellular T. cruzi replication, confirmation, NIH3T3 host cells, beta-gal luminescence (AID 2044); type: functional, cell-based;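 note: intracellular parasites grown in NIH/3T3 mouse fibroblasts as host cells; luminescent beta-galactosidase reporter signal from transgenic T. cruzi replicating inside host cells; inhibitors lower the luminescence signal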
[5] = C. albicans growth with fluconazole, confirmation, fluorescence, retest (AID 2467); type: functional, cell-based
[6] = NIH-3T3 fibroblast cytotoxicity, dose response, cytotoxicity control, cell-based, fluorescence, Alamar Blue, secondary assay (AID 2327); type: functional;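 note: NIH-3T3 mouse fibroblasts cultured with fluconazole at 8 µg/mL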
[7] = target: T2, Orexin/Hypocretin receptor type 1 (Homo sapiens, UniProt O43613); assay: Homogeneous Time Resolved Fluorescence (HTRF)-based cell-based high throughput dose response assay for antagonists of the orexin 1 receptor (OX1R; HCRTR1). [Related pubchem assays (depositor defined):AID434989, AID435008, AID463079, AID485270, AID492963, AID492964, AID492965, AID493232, AID504717, AID504718]; type: functional
T2 sequence (O43613 whole entry): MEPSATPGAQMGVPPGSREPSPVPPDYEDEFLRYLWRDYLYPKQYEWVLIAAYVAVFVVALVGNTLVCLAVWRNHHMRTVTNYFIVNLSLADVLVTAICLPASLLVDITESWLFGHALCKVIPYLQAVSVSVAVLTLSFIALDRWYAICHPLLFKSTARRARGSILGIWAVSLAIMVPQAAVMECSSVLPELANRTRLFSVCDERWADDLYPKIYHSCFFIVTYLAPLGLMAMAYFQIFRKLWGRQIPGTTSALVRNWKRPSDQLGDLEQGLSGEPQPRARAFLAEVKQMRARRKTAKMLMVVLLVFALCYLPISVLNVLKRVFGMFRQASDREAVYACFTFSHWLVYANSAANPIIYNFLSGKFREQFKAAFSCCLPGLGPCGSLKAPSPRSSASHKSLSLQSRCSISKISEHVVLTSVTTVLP

[8] = target: T3, Corticotropin-releasing factor receptor 2/Corticotropin-releasing factor-binding protein (Homo sapiens, UniProt P24387+Q13324); assay: activators of CRF receptor 2 with binding protein – uHTS hits, confirmation (AID 602473); type: functional; settings: read-out: EC50_Mean
T3 sequence (Q13324 whole entry): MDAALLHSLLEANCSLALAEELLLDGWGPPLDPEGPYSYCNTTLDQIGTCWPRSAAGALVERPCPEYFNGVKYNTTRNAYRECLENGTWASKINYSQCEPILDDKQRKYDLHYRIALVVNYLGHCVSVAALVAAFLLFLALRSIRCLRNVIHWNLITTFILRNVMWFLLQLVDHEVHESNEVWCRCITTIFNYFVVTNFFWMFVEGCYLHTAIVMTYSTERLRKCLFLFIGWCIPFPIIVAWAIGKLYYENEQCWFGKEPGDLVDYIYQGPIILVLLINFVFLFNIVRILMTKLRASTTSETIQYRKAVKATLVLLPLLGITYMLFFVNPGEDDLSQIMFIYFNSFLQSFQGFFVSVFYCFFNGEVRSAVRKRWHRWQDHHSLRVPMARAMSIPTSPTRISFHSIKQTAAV
T3 sequence (P24387 whole entry): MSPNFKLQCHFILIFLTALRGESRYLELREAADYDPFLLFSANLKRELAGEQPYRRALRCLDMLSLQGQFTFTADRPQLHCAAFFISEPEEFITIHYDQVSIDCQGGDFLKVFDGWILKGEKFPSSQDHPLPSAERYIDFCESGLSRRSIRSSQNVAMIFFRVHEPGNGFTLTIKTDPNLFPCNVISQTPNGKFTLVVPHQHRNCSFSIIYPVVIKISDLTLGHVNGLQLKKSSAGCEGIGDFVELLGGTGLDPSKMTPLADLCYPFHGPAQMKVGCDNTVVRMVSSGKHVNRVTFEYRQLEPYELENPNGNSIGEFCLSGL

[9] = (§1) Counterscreen for antagonists of the orexin 1 receptor (OX1R; HCRTR1): Fluorescence-based cell-based high throughput dose response assay to identify antagonists of the parental CHO cell line. [Related pubchem assays (depositor defined):AID434989, AID435008, AID463079, AID485270, AID492963, AID492964, AID492965, AID493232, AID504699, AID504701]; type: functional
[10] = target: T2, Orexin/Hypocretin receptor type 1; assay: Fluorescence-based cell-based high throughput dose response assay for antagonists of the orexin 1 receptor (OX1R; HCRTR1). [Related pubchem assays (depositor defined):AID434989, AID435008, AID463079, AID485270, AID492963, AID492964, AID492965, AID493232, AID504717, AID504718]; type: functional
Orexin receptor type 2 [11] = target: T4, Orexin receptor type 2 (Homo sapiens, UniProt O43614); assay: Counterscreen assay for antagonists of the orexin 1 receptor (OX1R; HCRTR1): Fluorescence-based cell-based dose response assay for antagonists of the orexin 2 receptor (OX2R; HCRTR2), run by assay provider.; type: functional
T4 sequence (O43614 whole entry): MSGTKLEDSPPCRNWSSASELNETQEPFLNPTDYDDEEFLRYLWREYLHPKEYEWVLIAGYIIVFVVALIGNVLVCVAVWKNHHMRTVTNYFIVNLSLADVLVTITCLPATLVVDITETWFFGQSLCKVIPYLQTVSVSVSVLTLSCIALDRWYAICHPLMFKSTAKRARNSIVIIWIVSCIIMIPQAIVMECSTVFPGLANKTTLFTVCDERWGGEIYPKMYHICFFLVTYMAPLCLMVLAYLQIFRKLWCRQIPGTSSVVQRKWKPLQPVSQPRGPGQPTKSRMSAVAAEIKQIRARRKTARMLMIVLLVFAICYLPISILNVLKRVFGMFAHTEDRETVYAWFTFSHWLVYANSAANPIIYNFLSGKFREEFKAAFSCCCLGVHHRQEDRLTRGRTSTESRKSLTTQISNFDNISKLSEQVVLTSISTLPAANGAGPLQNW

CHO-K1 = assay: as §1, with “Homogeneous time resolved fluorescence (HTRF)-based” for “Fluorescence-based”, “cell-based” for “cell-based high throughput”, “CHO-K1” for “CHO”; type: functional; settings: Cricetulus griseus;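 note: potency for inhibition of ATP-stimulated IP1 production as antagonists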
Orexin receptor type 2 [12] = target: T4, Orexin receptor type 2; assay: Counterscreen assay for antagonists of the orexin 1 receptor (OX1R; HCRTR1): Homogeneous Time Resolved Fluorescence (HTRF)-based cell-based dose response assay for antagonists of the orexin 2 receptor (OX2R; HCRTR2), run by assay provider.; type: functional
[13] = HepG2 cell cytotoxicity, cytotoxicity control, set 6 (AID 602432); type: functional; settings: Mycobacterium tuberculosis
[14] = THP-1 cell cytotoxicity, cytotoxicity control, set 6 (AID 602433); type: functional; settings: Mycobacterium tuberculosis
[15] = Vero cell cytotoxicity, cytotoxicity control for M. tuberculosis inhibitor project, purified and synthesized samples, set 8 (AID 602431); type: functional; settings: Mycobacterium tuberculosis
[16] = target: T5, V-type proton ATPase subunit c' (Saccharomyces cerevisiae S288c, UniProt P32842); assay: Dose Response with BCECF Assay for V-ATPase inhibitors that increase vacuolar pH, Powder Set 1.; type: functional; settings: read-out: EC50_MICROM
T5 sequence (P32842 whole entry): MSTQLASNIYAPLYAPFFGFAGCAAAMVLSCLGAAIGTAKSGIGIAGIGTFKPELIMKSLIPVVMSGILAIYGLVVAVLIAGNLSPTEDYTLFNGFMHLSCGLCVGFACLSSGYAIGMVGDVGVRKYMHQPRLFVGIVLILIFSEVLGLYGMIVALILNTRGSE

[17] = HEp-2 cell cytotoxicity, dose response, cytotoxicity control for RSV inhibitor project, HTS (AID 2410); type: functional; settings: human respiratory syncytial virus
[18] = target: T5, V-type proton ATPase subunit c'; assay: Dose Response of Small Molecules that Regulate V-ATPase Proton Transport in Yeast using pHLuorin, Powder Set1.; type: functional; settings: read-out: EC50_MICROM

Protein disulfide-isomerase, sequence (P07237 whole entry): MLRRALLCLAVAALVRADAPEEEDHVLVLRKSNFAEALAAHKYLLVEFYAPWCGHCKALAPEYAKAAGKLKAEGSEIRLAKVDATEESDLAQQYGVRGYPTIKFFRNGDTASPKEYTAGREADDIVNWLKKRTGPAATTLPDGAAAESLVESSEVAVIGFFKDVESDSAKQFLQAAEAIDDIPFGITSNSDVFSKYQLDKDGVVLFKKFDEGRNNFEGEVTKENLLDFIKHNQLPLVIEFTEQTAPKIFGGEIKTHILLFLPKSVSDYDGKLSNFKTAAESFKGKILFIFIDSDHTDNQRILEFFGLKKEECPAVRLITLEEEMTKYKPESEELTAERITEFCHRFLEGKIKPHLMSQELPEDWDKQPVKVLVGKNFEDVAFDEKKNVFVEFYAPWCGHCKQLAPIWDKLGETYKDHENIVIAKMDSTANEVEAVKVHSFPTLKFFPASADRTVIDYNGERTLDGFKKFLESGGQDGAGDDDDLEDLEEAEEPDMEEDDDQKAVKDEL

With `Cc1c(O)ccc2c(CN3CCN(CCO)CC3)cc(=O)oc12` the AC50 [1] was 8.66 µM (active).
In the case of `COc1ccc(C)cc1Nc1n[n+](-c2ccccc2)c(-c2ccc(OC)c(OC)c2OC)s1`, the EC50 [2] is reported as 12.1 µM (active), the AC50 (INS1) is reported as 11.2 µM (active) and the EC50 [3] is reported as > 30 µM (not active). The EC50 [4] was 0.215 µM (active), the EC50 [5] was 2.71 µM (active) and the EC50 [6] was > 160 µM (inactive).
In the case of `Cc1cc(-c2ccc(N3CCOCC3)cc2)nc2ccccc12`, the IC50 [7] is reported as 2.37 µM (active), the EC50 [8] is reported as > 53 µM (inactive) and the IC50 [9] is reported as > 49.8 µM (inactive). The IC50 [10] was 5.3 µM (active), the IC50 (Orexin receptor type 2 [11]) was > 88.8 µM (inactive) and the IC50 (CHO-K1) was > 66.2 µM (inactive). The IC50 (Orexin receptor type 2 [12]) was 19.3 µM (inactive).
In the case of `O=C(NCc1ccc(C(=O)N2CCC(c3ccccc3)CC2)cc1)Nc1ccc(Cl)cc1`, the CC50 [13] is reported as 35 µM (active), the CC50 [14] is reported as 24.7 µM (active) and the CC50 [15] is reported as 40.1 µM (active).
In the case of `O=C(c1ccc([N+](=O)[O-])o1)N1CCN(c2nc3c(Cl)cccc3s2)CC1`, the EC50 [16] is reported as 0.86 µM (active), the EC50 [3] is reported as 20.6 µM (active) and the EC50 [4] is reported as 0.254 µM (active). The CC50 [17] was > 50 µM (active) and the EC50 [18] was 3.53 µM (active).

From ChEMBL document CHEMBL1201862, “PubChem BioAssay data set” (2004)
